Test results: DBAASP
In brackets after ≈: the same amount, converted by molar mass. Each block holds one compound with its values, some of them ahead of it.

Assays:
Experiment in all cases: ≥ marks a high value that may be exact or a test limit, other limits are often not marked, values filed in µg/mL are converted to µM
Bacillus subtilis = tested on: Bacillus subtilis
[1] = tested on: Candida albicans ATCC 2002
Escherichia coli ML-35p = tested on: Escherichia coli ML-35p
[2] = tested on: Pseudomonas aeruginosa ATCC 27853
[3] = tested on: Pseudomonas aeruginosa PAO1
[4] = tested on: Staphylococcus aureus ATCC 2592
[5] = tested on: Staphylococcus aureus ATCC 43300
[6] = tested on: Candida albicans NCPF 1467
[7] = tested on: Escherichia coli NCTC 10418
[8] = tested on: Staphylococcus aureus NCTC 10788
[9] = tested on: Staphylococcus aureus ATCC 25923
Bacillus subtilis 168 = tested on: Bacillus subtilis 168
Escherichia coli B = tested on: Escherichia coli B
Pseudomonas aeruginosa = tested on: Pseudomonas aeruginosa
Staphylococcus aureus = tested on: Staphylococcus aureus
[10] = tested on: Corynebacterium glutamicum ATCC 13032
[11] = tested on: Escherichia coli ATCC 25922
[12] = tested on: Staphylococcus aureus ATCC 9144
Streptococcus mutans = tested on: Streptococcus mutans
Escherichia coli BW25113 = tested on: Escherichia coli BW25113

Structure (SMILES): CSCC[C@H](NC(=O)[C@H](CO)NC(=O)[C@H](CO)NC(=O)[C@H](CC(C)C)NC(=O)[C@H](C)NC(=O)CNC(=O)[C@H](Cc1ccccc1)NC(=O)[C@H](CC(C)C)NC(=O)[C@H](CC(C)C)NC(=O)[C@@H]1CCCN1C(=O)[C@H](Cc1ccccc1)NC(=O)[C@@H](N)Cc1ccccc1)C(=O)N[C@@H](CCSC)C(=O)N1CCC[C@H]1C(=O)N[C@@H](CCCCN)C(=O)N[C@@H](CC(C)C)C(=O)N[C@@H](Cc1ccccc1)C(N)=O [FFPLLFGALSSMMPKLF]
MIC (Bacillus subtilis): 7.71 µM (≈ 15 µg/mL)
MIC [1]: 2.57 µM (≈ 5 µg/mL)
MIC (Escherichia coli ML-35p): 15.4 µM (≈ 30 µg/mL)
MIC [2]: 1.28 µM (≈ 2.5 µg/mL)
MIC [3]: 1.28 µM (≈ 2.5 µg/mL)
MIC [4]: 1.28 µM (≈ 2.5 µg/mL)
MIC [5]: 1.28 µM (≈ 2.5 µg/mL)

Structure (SMILES): CC[C@H](C)[C@H](NC(=O)[C@H](C)NC(=O)[C@H](CCCCN)NC(=O)[C@@H]1CCCN1C(=O)[C@@H](NC(=O)[C@H](CC(C)C)NC(=O)[C@H](CCCCN)NC(=O)[C@H](Cc1ccccc1)NC(=O)[C@H](CC(C)C)NC(=O)[C@@H](N)Cc1ccccc1)[C@@H](C)CC)C(=O)N[C@@H](CCCCN)C(=O)NCC(=O)N[C@@H](CC(C)C)C(=O)N[C@H](C(=O)N[C@@H](CCCCN)C(=O)N[C@@H](C)C(=O)N[C@H](C(=O)N[C@@H](CCCN=C(N)N)C(=O)N[C@@H](CCCCN)C(N)=O)[C@@H](C)CC)C(C)C [FLFKLIPKAIKGLVKAIRK]
MIC [6]: 1.83 µM (≈ 4 µg/mL)
MIC [7]: 7.33 µM (≈ 16 µg/mL)
MIC [8]: 1.83 µM (≈ 4 µg/mL)

Structure (SMILES): CC[C@H](C)[C@H](NC(=O)CNC(=O)[C@@H](NC(=O)[C@H](C)NC(=O)[C@@H](NC(=O)[C@H](CCCCN)NC(=O)[C@@H](NC(=O)[C@@H](NC(=O)[C@@H]1CCCN1C(=O)CNC(=O)[C@H](CC(C)C)NC(=O)[C@@H](N)Cc1ccccc1)[C@@H](C)CC)[C@@H](C)CC)[C@@H](C)CC)[C@@H](C)O)C(=O)N[C@@H](CC(C)C)C(=O)N1CCC[C@H]1C(=O)N[C@H](C(=O)N[C@@H](C)C(=O)N[C@H](C(=O)N[C@H]1CSSC[C@@H](C(=O)O)NC(=O)[C@H](CCCCN)NC(=O)[C@H](CCCCN)NC(=O)[C@H](CC(C)C)NC(=O)[C@H](Cc2ccccc2)NC(=O)[C@H](CCCCN)NC1=O)[C@@H](C)CC)[C@@H](C)O [FLGPIIKIATGILPTAICKFLKKC]
MIC (Bacillus subtilis): 1.81 µM (≈ 4.69 µg/mL)
MIC [1]: 1.81 µM (≈ 4.69 µg/mL)
MIC (Escherichia coli ML-35p): 14.5 µM (≈ 37.5 µg/mL)
MIC [9]: 1.45 µM (≈ 3.75 µg/mL)
MIC [5]: 24.1 µM (≈ 62.5 µg/mL)

Structure (SMILES): CC[C@H](C)[C@H](NC(=O)[C@H](CO)NC(=O)[C@H](CC(C)C)NC(=O)[C@H](Cc1ccccc1)NC(=O)CN)C(=O)N[C@@H](CC(C)C)C(=O)N[C@@H](CCCCN)C(=O)N[C@@H](CCCCN)C(=O)N[C@H](C(=O)N[C@@H](CC(C)C)C(N)=O)C(C)C [GFLSILKKVL]
MIC (Bacillus subtilis 168): 2.9 µM (≈ 3.24 µg/mL)
MIC (Escherichia coli B): 9.1 µM (≈ 10.2 µg/mL)
MIC (Pseudomonas aeruginosa): 59 µM (≈ 65.9 µg/mL)
MIC (Staphylococcus aureus): 10.9 µM (≈ 12.2 µg/mL)

Structure (SMILES): CC(C)[C@H](NC(=O)[C@H](CCCCN)NC(=O)[C@H](C)NC(=O)[C@@H](NC(=O)[C@@H](NC(=O)[C@H](CCCN=C(N)N)NC(=O)[C@H](CCCN=C(N)N)NC(=O)[C@H](Cc1c[nH]c2ccccc12)NC(=O)[C@H](Cc1c[nH]c2ccccc12)NC(=O)CN)[C@@H](C)O)C(C)C)C(=O)N[C@@H](CCCN=C(N)N)C(=O)N[C@@H](CC(N)=O)C(N)=O [GWWRRTVAKVRN]
MIC [10]: 1.6 µM (≈ 2.44 µg/mL)
MIC [11]: 6.3 µM (≈ 9.63 µg/mL)
MIC [2]: 6.3 µM (≈ 9.63 µg/mL)
MIC [12]: ≥ 50 µM

Structure (SMILES): CC(C)C[C@H](NC(=O)[C@H](Cc1cnc[nH]1)NC(=O)[C@H](CCCCN)NC(=O)[C@H](Cc1c[nH]c2ccccc12)NC(=O)[C@H](CCCN=C(N)N)NC(=O)[C@H](CCCCN)NC(=O)[C@H](Cc1ccccc1)NC(=O)[C@H](CC(C)C)NC(=O)[C@@H](N)CCCCN)C(=O)N[C@@H](Cc1ccccc1)C(=O)N[C@@H](CCCN=C(N)N)C(=O)O [KLFKRWKHLFR]
MIC (Streptococcus mutans): ≥ 40.1 µM

The next lines start with the values.

MIC (Escherichia coli BW25113): ≥ 32 µM
Structure (SMILES): CC[C@H](C)[C@H](NC(=O)[C@@H]1CCCN1C(=O)[C@@H]1CCCN1C(=O)[C@H](CCCN=C(N)N)NC(=O)[C@H](Cc1ccccc1)NC(=O)[C@@H](N)CCCN=C(N)N)C(=O)N[C@@H](CCCN=C(N)N)C(=O)N[C@@H](CCCN=C(N)N)C(=O)N1CCC[C@H]1C(=O)N1CCC[C@H]1C(=O)N[C@H](C(=O)N[C@@H](CCCN=C(N)N)C(=O)N1CCC[C@H]1C(=O)N1CCC[C@H]1C(=O)N[C@@H](Cc1c[nH]c2ccccc12)C(=O)N[C@@H](Cc1ccc(O)cc1)C(=O)N1CCC[C@H]1C(=O)O)[C@@H](C)CC [RFRPPIRRPPIRPPWYP]

MIC (Escherichia coli BW25113): 8 µM (≈ 18 µg/mL)
Structure (SMILES): CC[C@H](C)[C@H](NC(=O)[C@@H]1CCCN1C(=O)[C@H](Cc1c[nH]c2ccccc12)NC(=O)[C@H](CCCN=C(N)N)NC(=O)[C@H](Cc1ccccc1)NC(=O)[C@@H](N)CCCN=C(N)N)C(=O)N[C@@H](CCCN=C(N)N)C(=O)N[C@@H](CCCN=C(N)N)C(=O)N1CCC[C@H]1C(=O)N1CCC[C@H]1C(=O)N[C@H](C(=O)N[C@@H](CCCN=C(N)N)C(=O)N1CCC[C@H]1C(=O)N1CCC[C@H]1C(=O)N[C@@H](Cc1ccccc1)C(=O)N[C@@H](Cc1ccc(O)cc1)C(=O)N1CCC[C@H]1C(=O)O)[C@@H](C)CC [RFRWPIRRPPIRPPFYP]

MIC (Escherichia coli BW25113): 16 µM (≈ 37.6 µg/mL)
Structure (SMILES): CC[C@H](C)[C@H](NC(=O)[C@@H]1CCCN1C(=O)[C@H](CCCN=C(N)N)NC(=O)[C@H](CCCN=C(N)N)NC(=O)[C@H](CCCN=C(N)N)NC(=O)[C@@H](N)CCCN=C(N)N)C(=O)N[C@@H](CCCN=C(N)N)C(=O)N[C@@H](CCCN=C(N)N)C(=O)N[C@@H](CCCN=C(N)N)C(=O)N1CCC[C@H]1C(=O)N[C@H](C(=O)N[C@@H](CCCN=C(N)N)C(=O)N1CCC[C@H]1C(=O)N1CCC[C@H]1C(=O)N[C@@H](Cc1ccccc1)C(=O)N[C@@H](Cc1ccc(O)cc1)C(=O)N[C@@H](CCCN=C(N)N)C(=O)O)[C@@H](C)CC [RRRRPIRRRPIRPPFYR]

MIC (Streptococcus mutans): 6.3 µM (≈ 16 µg/mL)
Structure (SMILES): NC(=O)[C@H](Cc1ccccc1)NC(=O)[C@H](Cc1c[nH]c2ccccc12)NC(=O)[C@H](Cc1c[nH]c2ccccc12)NC(=O)[C@H](Cc1c[nH]c2ccccc12)NC(=O)[C@H](CCCN=C(N)N)NC(=O)[C@H](CCCN=C(N)N)NC(=O)[C@H](CCCN=C(N)N)NC(=O)CNC(=O)CNC(=O)CNC(=O)[C@H](Cc1ccccc1)NC(=O)[C@H](Cc1c[nH]c2ccccc12)NC(=O)[C@H](Cc1c[nH]c2ccccc12)NC(=O)[C@H](Cc1c[nH]c2ccccc12)NC(=O)[C@H](CCCN=C(N)N)NC(=O)[C@H](CCCN=C(N)N)NC(=O)[C@@H](N)CCCN=C(N)N [RRRWWWFGGGRRRWWWF]

MIC (Escherichia coli BW25113): 8 µM (≈ 19.3 µg/mL)
Structure (SMILES): CC[C@H](C)[C@H](NC(=O)[C@@H]1CCCN1C(=O)[C@H](CCCN=C(N)N)NC(=O)[C@H](CCCN=C(N)N)NC(=O)[C@H](Cc1c[nH]c2ccccc12)NC(=O)[C@@H](N)CCCN=C(N)N)C(=O)N[C@@H](CCCN=C(N)N)C(=O)N[C@@H](CCCN=C(N)N)C(=O)N[C@@H](CCCN=C(N)N)C(=O)N1CCC[C@H]1C(=O)N[C@H](C(=O)N[C@@H](CCCN=C(N)N)C(=O)N1CCC[C@H]1C(=O)N1CCC[C@H]1C(=O)N[C@@H](Cc1c[nH]c2ccccc12)C(=O)N[C@@H](Cc1ccc(O)cc1)C(=O)N[C@@H](CCCN=C(N)N)C(=O)O)[C@@H](C)CC [RWRRPIRRRPIRPPWYR]

MIC (Streptococcus mutans): 27.3 µM (≈ 32 µg/mL)
Structure (SMILES): NCCCC[C@H](NC(=O)[C@H](Cc1c[nH]c2ccccc12)NC(=O)[C@H](CCCN=C(N)N)NC(=O)[C@H](Cc1c[nH]c2ccccc12)NC(=O)[C@H](CCCN=C(N)N)NC(=O)[C@H](Cc1c[nH]c2ccccc12)NC(=O)[C@@H](N)CCCN=C(N)N)C(=O)O [RWRWRWK]

MIC (Bacillus subtilis): 8.6 µM (≈ 21.9 µg/mL)
MIC [1]: 12.9 µM (≈ 32.7 µg/mL)
MIC (Escherichia coli ML-35p): 14.7 µM (≈ 37.5 µg/mL)
MIC [9]: 3.69 µM (≈ 9.38 µg/mL)
Structure (SMILES): CC[C@H](C)[C@H](NC(=O)[C@H](CCCCN)NC(=O)[C@H](CC(=O)O)NC(=O)[C@H](CC(C)C)NC(=O)[C@@H](NC(=O)[C@H](CC(N)=O)NC(=O)[C@H](CCC(N)=O)NC(=O)[C@@H](NC(=O)[C@H](Cc1ccccc1)NC(=O)CNC(=O)[C@H](CCCCN)NC(=O)CNC(=O)[C@H](C)NC(=O)[C@H](CC(N)=O)NC(=O)[C@H](CCCCN)NC(=O)[C@@H](NC(=O)[C@@H](NC(=O)[C@H](CCC(=O)O)NC(=O)[C@H](Cc1c[nH]c2ccccc12)NC(=O)[C@H](CC(C)C)NC(=O)[C@@H](N)CO)[C@@H](C)O)[C@@H](C)CC)[C@@H](C)CC)[C@@H](C)CC)C(=O)N[C@@H](CCCN=C(N)N)C(=O)O [SLWETIKNAGKGFIQNILDKIR]
